Data published in patent publication US10588317B2, “Isoxazoline-substituted benzamides and analogues as insecticides” (priority 2015, dated 2020).

Key:
Format in all cases: in vivo
Plutella xylostella = Plutella xylostella (diamond back moth), artificial diet; conditions: 120 h, application rate 200 ppm, L2 larvae, 5 days after infestation, read-out: effect in at least one of the two categories (mortality or growth inhibition)
How it was run: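 Artificial diet in 24-well plates treated with aqueous test solutions made from 10'000 ppm DMSO stocks, dried, then infested with L2 larvae (10 to 15 per well). Mortality and growth inhibition scored against untreated samples 5 days after infestation; activity cut-off at least 80% in either category at 200 ppm.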

Diabrotica balteata = Diabrotica balteata (corn root worm), sprayed maize sprouts; conditions: 96 h, application rate 200 ppm, L2 larvae, 4 days after infestation, read-out: effect in at least one of the two categories (mortality or growth inhibition)
How it was run: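 Maize sprouts on agar sprayed with aqueous dilutions of DMSO stocks, dried, then infested with L2 larvae (6–10 per well). Mortality and growth inhibition scored against untreated controls 4 days after infestation, at 200 ppm application rate.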

Spodoptera littoralis = Spodoptera littoralis (Egyptian cotton leaf worm), sprayed cotton leaf discs; conditions: foliar, 72 h, application rate 200 ppm, L1 larvae, 3 days after infestation, read-out: control (mortality, anti-feeding effect, growth inhibition)
How it was run: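 Cotton leaf discs on agar sprayed with aqueous test solutions made from 10'000 ppm DMSO stock; after drying, infested with five L1 larvae. Mortality, anti-feeding and growth inhibition scored versus untreated samples 3 days after infestation; control counted when any category exceeds untreated.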

Euschistus heros = Euschistus heros (neotropical brown stink bug), sprayed soybean leaves; conditions: 120 h, application rate 200 ppm, N2 nymphs, 5 days after infestation, read-out: effect in at least one of the two categories (mortality or growth inhibition)
How it was run: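 Soybean leaves on agar sprayed with aqueous dilutions of DMSO stocks, dried, then infested with N2 nymphs. Mortality and growth inhibition scored against untreated samples 5 days after infestation; application rate 200 ppm.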

Tetranychus urticae = Tetranychus urticae (two-spotted spider mite): feeding/contact activity; conditions: 192 h, application rate 200 ppm, mixed population (mobile stages), 8 days after infestation, read-out: mortality
Protocol: Bean leaf discs on agar in 24-well microtiter plates were sprayed with aqueous test solutions prepared from 10'000 ppm DMSO stock solutions. After drying the leaf discs were infested with a mite population of mixed ages. The samples were assessed for mortality on mixed population (mobile stages) 8 days after infestation.

Myzus persicae = Myzus persicae (green peach aphid): feeding/contact activity; conditions: 144 h, application rate 200 ppm, aphid population of mixed ages, 6 days after infestation, read-out: mortality
Protocol: Sunflower leaf discs were placed onto agar in a 24-well microtiter plate and sprayed with aqueous test solutions prepared from 10'000 ppm DMSO stock solutions. After drying, the leaf discs were infested with an aphid population of mixed ages. The samples were assessed for mortality 6 days after infestation.

Thrips tabaci = Thrips tabaci (onion thrips): feeding/contact activity; conditions: 144 h, application rate 200 ppm, Thrips population of mixed ages, 6 days after infestation, read-out: mortality
Protocol: Sunflower leaf discs were placed on agar in 24-well microtiter plates and sprayed with aqueous test solutions prepared from 10'000 ppm DMSO stock solutions. After drying the leaf discs were infested with a Thrips population of mixed ages. The samples were assessed for mortality 6 days after infestation.

Cc1cc(C(F)(F)F)cc([C@@]2(C(F)(F)F)CC(c3ccc(C(=O)N[C@@H]4CON(S(C)(=O)=O)C4)c(C)c3)=NO2)c1 [Compound A212]
≥ 80%: percent effect (mortality or growth inhibition) at 200 ppm (Plutella xylostella) | percent effect (mortality or growth inhibition) at 200 ppm (Diabrotica balteata) | mortality at 200 ppm (Spodoptera littoralis) | percent effect (mortality or growth inhibition) at 200 ppm (Euschistus heros) | mortality at 200 ppm (Tetranychus urticae) | mortality at 200 ppm (Myzus persicae) | mortality at 200 ppm (Thrips tabaci)

Cc1cc(C2=NO[C@@](c3cc(Cl)cc(C(F)(F)F)c3)(C(F)(F)F)C2)ccc1C(=O)N[C@@H]1CON(S(=O)(=O)C(F)F)C1 [Compound A233]
≥ 80%: percent effect (mortality or growth inhibition) at 200 ppm (Plutella xylostella) | percent effect (mortality or growth inhibition) at 200 ppm (Diabrotica balteata) | mortality at 200 ppm (Spodoptera littoralis) | percent effect (mortality or growth inhibition) at 200 ppm (Euschistus heros) | mortality at 200 ppm (Tetranychus urticae) | mortality at 200 ppm (Myzus persicae) | mortality at 200 ppm (Thrips tabaci)

Cc1cc(C2=NO[C@@](c3cc(Cl)cc(Cl)c3)(C(F)(F)F)C2)ccc1C(=O)N[C@@H]1CON(S(=O)(=O)CF)C1 [Compound A210]
≥ 80%: percent effect (mortality or growth inhibition) at 200 ppm (Plutella xylostella) | percent effect (mortality or growth inhibition) at 200 ppm (Diabrotica balteata) | mortality at 200 ppm (Spodoptera littoralis) | percent effect (mortality or growth inhibition) at 200 ppm (Euschistus heros) | mortality at 200 ppm (Tetranychus urticae) | mortality at 200 ppm (Myzus persicae) | mortality at 200 ppm (Thrips tabaci)

Cc1cc(C2=NO[C@@](c3cc(Cl)cc(C(F)(F)F)c3)(C(F)(F)F)C2)ccc1C(=O)N[C@@H]1CON(S(=O)(=O)CC(F)(F)F)C1 [Compound A214]
≥ 80%: percent effect (mortality or growth inhibition) at 200 ppm (Plutella xylostella) | percent effect (mortality or growth inhibition) at 200 ppm (Diabrotica balteata) | mortality at 200 ppm (Spodoptera littoralis) | percent effect (mortality or growth inhibition) at 200 ppm (Euschistus heros) | mortality at 200 ppm (Tetranychus urticae) | mortality at 200 ppm (Myzus persicae) | mortality at 200 ppm (Thrips tabaci)

CNS(=O)(=O)N1C[C@@H](NC(=O)c2ccc(C3=NO[C@](c4cc(Cl)c(OC(F)F)c(Cl)c4)(C(F)(F)F)C3)cc2C)CO1 [Compound A207, 4-[(5R)-5-[3,5-dichloro-4-(difluoromethoxy)phenyl]-5-(trifluoromethyl)-4H-1,2-oxazol-3-yl]-2-methyl-N-[(4R)-2-(methylsulfamoyl)-1,2-oxazolidin-4-yl]benzamide]
≥ 80%: percent effect (mortality or growth inhibition) at 200 ppm (Plutella xylostella) | percent effect (mortality or growth inhibition) at 200 ppm (Diabrotica balteata) | mortality at 200 ppm (Spodoptera littoralis) | percent effect (mortality or growth inhibition) at 200 ppm (Euschistus heros) | mortality at 200 ppm (Tetranychus urticae) | mortality at 200 ppm (Myzus persicae) | mortality at 200 ppm (Thrips tabaci)

CCN(C1CC1)S(=O)(=O)N1C[C@@H](NC(=O)c2ccc(C3=NO[C@@](c4cc(Cl)cc(Cl)c4)(C(F)(F)F)C3)cc2Cl)CO1 [Compound A157]
≥ 80%: percent effect (mortality or growth inhibition) at 200 ppm (Plutella xylostella) | percent effect (mortality or growth inhibition) at 200 ppm (Diabrotica balteata) | mortality at 200 ppm (Spodoptera littoralis) | percent effect (mortality or growth inhibition) at 200 ppm (Euschistus heros) | mortality at 200 ppm (Tetranychus urticae) | mortality at 200 ppm (Myzus persicae) | mortality at 200 ppm (Thrips tabaci)

CCCCN(C)S(=O)(=O)N1CC(NC(=O)c2ccc(C3=NO[C@@](c4cc(Cl)c(Cl)c(Cl)c4)(C(F)(F)F)C3)cc2C)CO1 (stereo partly drawn) [Compound A85, N-[2-[butyl(methyl)sulfamoyl]isoxazolidin-4-yl]-2-methyl-4-[(5S)-5-(3,4,5-trichlorophenyl)-5-(trifluoromethyl)-4H-isoxazol-3-yl]benzamide]
≥ 80%: percent effect (mortality or growth inhibition) at 200 ppm (Plutella xylostella) | percent effect (mortality or growth inhibition) at 200 ppm (Diabrotica balteata) | mortality at 200 ppm (Spodoptera littoralis) | percent effect (mortality or growth inhibition) at 200 ppm (Euschistus heros) | mortality at 200 ppm (Tetranychus urticae) | mortality at 200 ppm (Myzus persicae) | mortality at 200 ppm (Thrips tabaci)

Cc1cc(C2=NO[C@](c3cc(Cl)cc(C(F)F)c3)(C(F)(F)F)C2)ccc1C(=O)N[C@H]1CON(S(=O)(=O)N(C)C)C1 [Compound A186]
≥ 80%: percent effect (mortality or growth inhibition) at 200 ppm (Plutella xylostella) | percent effect (mortality or growth inhibition) at 200 ppm (Diabrotica balteata) | mortality at 200 ppm (Spodoptera littoralis) | percent effect (mortality or growth inhibition) at 200 ppm (Euschistus heros) | mortality at 200 ppm (Tetranychus urticae) | mortality at 200 ppm (Myzus persicae) | mortality at 200 ppm (Thrips tabaci)

Cc1cc(C2=NO[C@@](c3cc(Cl)c(Cl)c(Cl)c3)(C(F)(F)F)C2)ccc1C(=O)N[C@H]1CON(S(=O)(=O)C(F)F)C1 [Compound A231, N-[(4R)-2-(difluoromethylsulfonyl)-1,2-oxazolidin-4-yl]-2-methyl-4-[(5S)-5-(3,4,5-trichlorophenyl)-5-(trifluoromethyl)-4H-1,2-oxazol-3-yl]benzamide]
≥ 80%: percent effect (mortality or growth inhibition) at 200 ppm (Plutella xylostella) | percent effect (mortality or growth inhibition) at 200 ppm (Diabrotica balteata) | mortality at 200 ppm (Spodoptera littoralis) | percent effect (mortality or growth inhibition) at 200 ppm (Euschistus heros) | mortality at 200 ppm (Tetranychus urticae) | mortality at 200 ppm (Myzus persicae) | mortality at 200 ppm (Thrips tabaci)

Cc1cc(C2=NO[C@@](c3cc(Cl)c(Cl)c(Cl)c3)(C(F)(F)F)C2)ccc1C(=O)NC1CON(S(=O)(=O)NC(C)C)C1 (stereo partly drawn) [Compound A101, N-[2-(isopropylsulfamoyl)isoxazolidin-4-yl]-2-methyl-4-[(5S)-5-(3,4,5-trichlorophenyl)-5-(trifluoromethyl)-4H-isoxazol-3-yl]benzamide]
≥ 80%: percent effect (mortality or growth inhibition) at 200 ppm (Plutella xylostella) | percent effect (mortality or growth inhibition) at 200 ppm (Diabrotica balteata) | mortality at 200 ppm (Spodoptera littoralis) | percent effect (mortality or growth inhibition) at 200 ppm (Euschistus heros) | mortality at 200 ppm (Tetranychus urticae) | mortality at 200 ppm (Myzus persicae) | mortality at 200 ppm (Thrips tabaci)

Cc1cc(C2=NO[C@@](c3cc(Cl)c(F)c(Cl)c3)(C(F)(F)F)C2)ccc1C(=O)N[C@H]1CON(S(=O)(=O)NCC(F)(F)F)C1 [Compound A149, 4-[(5S)-5-(3,5-dichloro-4-fluoro-phenyl)-5-(trifluoromethyl)-4H-isoxazol-3-yl]-2-methyl-N-[(4R)-2-(2,2,2-trifluoroethylsulfamoyl)isoxazolidin-4-yl]benzamide]
≥ 80%: percent effect (mortality or growth inhibition) at 200 ppm (Plutella xylostella) | percent effect (mortality or growth inhibition) at 200 ppm (Diabrotica balteata) | mortality at 200 ppm (Spodoptera littoralis) | percent effect (mortality or growth inhibition) at 200 ppm (Euschistus heros) | mortality at 200 ppm (Tetranychus urticae) | mortality at 200 ppm (Myzus persicae) | mortality at 200 ppm (Thrips tabaci)

CN(C1CC1)S(=O)(=O)N1C[C@@H](NC(=O)c2ccc(C3=NO[C@@](c4cc(Cl)cc(Cl)c4)(C(F)(F)F)C3)cc2Cl)CO1 [Compound A153]
≥ 80%: percent effect (mortality or growth inhibition) at 200 ppm (Plutella xylostella) | percent effect (mortality or growth inhibition) at 200 ppm (Diabrotica balteata) | mortality at 200 ppm (Spodoptera littoralis) | percent effect (mortality or growth inhibition) at 200 ppm (Euschistus heros) | mortality at 200 ppm (Tetranychus urticae) | mortality at 200 ppm (Myzus persicae) | mortality at 200 ppm (Thrips tabaci)

Cc1cc(C2=NO[C@](c3cc(Cl)c(F)c(Cl)c3)(C(F)(F)F)C2)ccc1C(=O)N[C@H]1CON(S(=O)(=O)CCl)C1 [Compound A164, N-[(4R)-2-(chloromethylsulfonyl)-1,2-oxazolidin-4-yl]-4-[(5R)-5-(3,5-dichloro-4-fluorophenyl)-5-(trifluoromethyl)-4H-1,2-oxazol-3-yl]-2-methylbenzamide]
≥ 80%: percent effect (mortality or growth inhibition) at 200 ppm (Plutella xylostella) | percent effect (mortality or growth inhibition) at 200 ppm (Diabrotica balteata) | mortality at 200 ppm (Spodoptera littoralis) | percent effect (mortality or growth inhibition) at 200 ppm (Euschistus heros) | mortality at 200 ppm (Tetranychus urticae) | mortality at 200 ppm (Myzus persicae) | mortality at 200 ppm (Thrips tabaci)
